The source made the active and inactive calls. The rule behind the calls is not given here. Peptide text beside a SMILES is read from it.
Legend:
HeLa [1] = experiment: Antiproliferative activity against human HeLa cells under dark condition by CCK8 assay; type: functional, cell-based
[2] = Toxicity in BALB/C nude mouse model xenografted with human HepG2 cells assessed as drug tolerance at 1 to 2 uM/kg, iv administered every two days for 21 days along with 250 mW/cm2 light irradiation at 660 nm for 10 mins at 1 hr post-compound administration; type: organism-based; details: in vivo, 505.17 h, dose 1-2 µM/Kg, time 505.166 hrs
MCF7 [3] = experiment: Antiproliferative activity against human MCF7 cells under 10 J/cm2 light irradiation at 660 nm by CCK8 assay; type: functional, cell-based; details: MCF7, light or radiation study
HepG2 [4] = experiment: Antitumor activity in human HepG2 cells xenografted in BALB/C nude mouse model assessed as tumor growth inhibition at 1 to 2 uM/kg, iv administered every two days for 21 days along with 250 mW/cm2 light irradiation at 660 nm for 10 mins at 1 hr post-compound administration relative to control; type: functional; details: dose 1-2 µM/Kg, time 505.166 hrs, 505.17 h, at 1 to 2 µmol/kg
[5] = Toxicity in BALB/C nude mouse model xenografted with human HepG2 cells assessed as change in kidney weight at 1 to 2 uM/kg, iv administered every two days for 21 days along with 250 mW/cm2 light irradiation at 660 nm for 10 mins at 1 hr post-compound administration; type: organism-based; details: in vivo, 505.17 h, dose 1-2 µM/Kg, time 505.166 hrs
HepG2 [6] = experiment: Induction of apoptosis in human HepG2 cells assessed as necrotic cells under dark condition at 2.5 uM incubated for 24 hrs by Annexin V-FITC/PI staining based flow cytometry relative to control; type: functional
MCF7 [7] = experiment: Antitumor activity against human MCF7 cells xenografted in BALB/C nude mouse model assessed as decrease in tumor growth at 1 to 2 uM/kg, iv administered every two days for 21 days along with 250 mW/cm2 light irradiation at 660 nm for 10 mins at 1 hr post-compound administration; type: functional, organism-based; details: dose 1-2 µM/Kg, time 505.166 hrs
[8] = Drug distribution in tumor of BALB/C nude mouse model xenografted with human HepG2 cells at 1 uM/kg, iv measured after 2 hrs by fluorescence spectrophotometry; type: ADME, organism-based, Neoplasm; details: in vivo
MCF7 [9] = experiment: Antiproliferative activity against human MCF7 cells under dark condition by CCK8 assay; type: functional, cell-based
[10] = Drug distribution in BALB/C nude mouse model xenografted with human HepG2 cells at 1 to 2 uM/kg, iv measured after 1 hr by fluorescence imaging analysis; type: ADME, organism-based; details: in vivo, dose 1-2 µM/Kg
[11] = Toxicity in BALB/C nude mouse model xenografted with human HepG2 cells assessed as damage in lung at 1 to 2 uM/kg, iv administered every two days for 21 days along with 250 mW/cm2 light irradiation at 660 nm for 10 mins at 1 hr post-compound administration by H and E staining based analysis; type: organism-based; details: in vivo, 505.17 h, dose 1-2 µM/Kg, time 505.166 hrs
HepG2 [12] = experiment: Induction of apoptosis in human HepG2 cells assessed as early apoptotic cells under dark condition at 2.5 uM incubated for 24 hrs by Annexin V-FITC/PI staining based flow cytometry relative to control; type: functional
[13] = Drug uptake in human Huh-7 cells at 10 uM by confocal microscopy; type: ADME, cell-based; details: huh-7, 10 µM, TDE = time-dependent effect, time 4-24 hrs
[14] = Drug uptake in human HepG2 cells at 500 nM incubated for 2 hrs by flow cytometry; type: ADME, cell-based; details: hepg2, 2 h, 0.5 µM
[15] = Drug distribution in tumor of BALB/C nude mouse model xenografted with human Huh-7 cells at 1 to 2 uM/kg, iv measured for 1 to 6 hrs by fluorescence imaging analysis; type: ADME, organism-based, Neoplasm; details: in vivo, dose lower 1 µM/Kg, time lower 1 hrs, dose upper 2 µM/Kg, time upper 6 hrs
[16] = Toxicity in BALB/C nude mouse model xenografted with human HepG2 cells assessed as change in spleen weight at 1 to 2 uM/kg, iv administered every two days for 21 days along with 250 mW/cm2 light irradiation at 660 nm for 10 mins at 1 hr post-compound administration; type: organism-based; details: in vivo, 505.17 h, dose 1-2 µM/Kg, time 505.166 hrs
Huh-7 [17] = experiment: Induction of cell cycle arrest at S phase in human Huh-7 cells at 1 uM under 10 J/cm2 light irradiation at 660 nm by flow cytometry; type: functional, cell-based
HepG2 [18] = experiment: Antitumor activity against human HepG2 cells xenografted in BALB/C nude mouse model assessed as decrease in Ki67 expression at 1 to 2 uM/kg, iv administered every two days for 21 days along with 250 mW/cm2 light irradiation at 660 nm for 10 mins at 1 hr post-compound administration by […] based analysis; type: functional, organism-based; details: dose 1-2 µM/Kg, time 505.166 hrs
[19] = Antiproliferative activity against human HUVEC cells under 10 J/cm2 light irradiation at 660 nm by CCK8 assay; type: toxicity, cell-based
[20] = Toxicity in BALB/C nude mouse model xenografted with human HepG2 cells assessed as damage in spleen at 1 to 2 uM/kg, iv administered every two days for 21 days along with 250 mW/cm2 light irradiation at 660 nm for 10 mins at 1 hr post-compound administration by H and E staining based analysis; type: organism-based; details: in vivo, 505.17 h, dose 1-2 µM/Kg, time 505.166 hrs
[21] = Drug uptake in endoplasmic reticulum of human Huh-7 cells at 2 uM incubated for 24 hrs by ER tracker green probe based laser confocal microscopy; type: ADME, subcellular; details: huh-7, 24 h
[22] = Drug distribution in tumor of BALB/C nude mouse model xenografted with human Huh-7 cells administered intravenously measured after 2 hrs by fluorescence spectrophotometry; type: ADME, tissue-based, Neoplasm; details: in vivo, iv, dose 1-2 µM/Kg
[23] = Drug distribution in spleen of BALB/C nude mouse model xenografted with human HepG2 cells at 1 to 2 uM/kg, iv measured for 1 to 4 hrs by fluorescence imaging analysis; type: ADME, organism-based; details: in vivo, dose lower 1 µM/Kg, time lower 1 hrs, dose upper 2 µM/Kg, time upper 4 hrs
HepG2 [24] = experiment: Antiproliferative activity against human HepG2 cells under dark condition by CCK8 assay; type: functional, cell-based
HepG2 [25] = experiment: Antiproliferative activity against human HepG2 cells under 10 J/cm2 light irradiation at 660 nm by CCK8 assay; type: functional, cell-based; details: HepG2, light or radiation study
[26] = Drug uptake in human MCF7 cells at 10 uM incubated for 4 hrs by confocal microscopy; type: ADME, cell-based; details: mcf7, 4 h
[27] = Drug distribution in heart of BALB/C nude mouse model xenografted with human HepG2 cells at 1 to 2 uM/kg, iv measured for 1 to 4 hrs by fluorescence imaging analysis; type: ADME, organism-based; details: in vivo, dose lower 1 µM/Kg, time lower 1 hrs, dose upper 2 µM/Kg, time upper 4 hrs
Huh-7 [28] = experiment: Antiproliferative activity against human Huh-7 cells under dark condition by CCK8 assay; type: functional, cell-based
[29] = Drug distribution in kidney of BALB/C nude mouse model xenografted with human HepG2 cells at 1 to 2 uM/kg, iv measured for 1 to 4 hrs by fluorescence imaging analysis; type: ADME, organism-based; details: in vivo, dose lower 1 µM/Kg, time lower 1 hrs, dose upper 2 µM/Kg, time upper 4 hrs
HepG2 [30] = experiment: Induction of apoptosis in human HepG2 cells assessed as late apoptotic cells under dark condition at 5 uM incubated for 24 hrs by Annexin V-FITC/PI staining based flow cytometry relative to control; type: functional
[31] = Drug uptake in human MCF7 cells incubated for 2 hrs by fluorescence based assay; type: ADME, cell-based; details: mcf7, 2 h
HeLa [32] = experiment: Antiproliferative activity against human HeLa cells under 10 J/cm2 light irradiation at 660 nm by CCK8 assay; type: functional, cell-based; details: light or radiation study

Q: With `C=Cc1c(C)c2cc3nc(c(CC(=O)O)c4[nH]c(cc5nc(cc1[nH]2)C(C)=C5CC)c(C)c4C(=O)NCCCC(=O)N[C@@H](CC(=O)O)C(=O)N[C@@H](Cc1cnc[nH]1)C(=O)N[C@@H](CC(C)C)C(=O)N[C@@H](C)C(=O)N[C@@H](CO)C(=O)N[C@@H](CC(C)C)C(=O)N[C@@H](Cc1c[nH]c2ccccc12)C(=O)N[C@@H](Cc1c[nH]c2ccccc12)C(=O)NCC(=O)N[C@H](C(=O)N[C@@H](CCC(=O)O)C(=O)N[C@@H](CC(C)C)C(=O)O)[C@@H](C)O)[C@@H](CCC(=O)O)[C@@H]3C` (HELM PEPTIDE1{[C=Cc1c(C)c2cc3nc(c(CC(=O)O)c4[nH]c(cc5nc(cc1[nH]2)C(C)=C5CC)c(C)c4C(=O)[*:2])[C@@H](CCC(=O)O)[C@@H]3C].[O=C(CCCN[*:1])[*:2]].D.H.L.A.S.L.W.W.G.T.E.L}$$$$V2.0) as the molecule, how does the IC50 (HeLa [1]) read?
A: Its IC50 is over 100 µM.

Q: And the Activity [2]?
A: Its Activity is “Non-Toxic”.

Q: And the IC50 (MCF7 [3])?
A: The IC50 was over 10 µM.

Q: What about the TGI (HepG2 [4]) of the same molecule?
A: Its TGI is 100%.

Q: What about the Activity [5] of the same molecule?
A: The Activity was “Non-Toxic”.

Q: What about the Activity (HepG2 [6]) of the same molecule?
A: The Activity was 0.2%.

Q: What about the Activity (MCF7 [7]) of the same molecule?
A: Its Activity is “Active”.

Q: And the Drug uptake [8]?
A: The Drug uptake was “Active”.

Q: And the IC50 (MCF7 [9])?
A: Its IC50 is over 100 µM.

Q: And the Drug uptake [10]?
A: The Drug uptake was “Active”.

Q: What about the Activity [11] of the same molecule?
A: The Activity was “Non-Toxic”.

Q: And the Activity (HepG2 [12])?
A: The Activity was 2.7%.

Q: What about the Drug uptake [13] of the same molecule?
A: Its Drug uptake is “Tde”.

Q: What about the Drug uptake [14] of the same molecule?
A: The Drug uptake was “Dose-Dependent Effect”.

Q: And the Drug uptake [15]?
A: The Drug uptake was “Active”.

Q: And the Activity [16]?
A: Its Activity is “Non-Toxic”.

Q: And the Activity (Huh-7 [17])?
A: The Activity was “Active”.

Q: What about the Activity (HepG2 [18]) of the same molecule?
A: Its Activity is “Active”.

Q: What about the IC50 [19] of the same molecule?
A: The IC50 was over 10 µM.

Q: What about the Activity [20] of the same molecule?
A: The Activity was “Non-Toxic”.

Q: What about the Drug uptake [21] of the same molecule?
A: Its Drug uptake is “Active”.

Q: What about the Drug uptake [22] of the same molecule?
A: Its Drug uptake is “Active”.

Q: And the Drug uptake [23]?
A: The Drug uptake was “Not Active”.

Q: What about the IC50 (HepG2 [24]) of the same molecule?
A: The IC50 was over 100 µM.

Q: And the IC50 (HepG2 [25])?
A: The IC50 was 0.82 µM.

Q: What about the Drug uptake [26] of the same molecule?
A: The Drug uptake was “Not Active”.

Q: What about the Drug uptake [27] of the same molecule?
A: The Drug uptake was “Not Active”.

Q: What about the IC50 (Huh-7 [28]) of the same molecule?
A: Its IC50 is over 100 µM.

Q: What about the Drug uptake [29] of the same molecule?
A: Its Drug uptake is “Not Active”.

Q: What about the Activity (HepG2 [30]) of the same molecule?
A: Its Activity is 1.7%.

Q: What about the Drug uptake [31] of the same molecule?
A: The Drug uptake was “Not Active”.

Q: What about the IC50 (HeLa [32]) of the same molecule?
A: Its IC50 is over 10 µM.

Source: ChEMBL document CHEMBL5537154, “Smart glypican-3-targeting peptide-chlorin e6 conjugates for targeted photodynamic therapy of hepatocellular carcinoma” (Eur J Med Chem, 2024)
